Values quoted from earlier work, collected in patent publication US20200222348A1, “BIMODAL MODIFIED RELEASE COMPOSITIONS FOR CANCER TREATMENT” (MUSLI THYROPEUTICS LTD., priority 2017, published 2020).

Details: stated as general knowledge

For `N[C@@H](Cc1cc(I)c(Oc2ccc(O)c(I)c2)c(I)c1)C(=O)O` [Example T3, triiodothyronine], the biological half-life (T3, short biological half-life) is listed as 48-60 hours and the Tmax in serum (T3 in serum) is listed as “about 4 hrs”.
